Results: PubChem BioAssay AID248 (DTP/NCI, 2004)
Several values for one entry are separate records, joined by “and”; a condition that tells them apart may be missing. Identical values can stand only once. Inconclusive results and toxic doses are left out.

System: L1210 leukemia ip in BDF1 mice, survival T/C
Assay: NCI In Vivo Anticancer Drug Screen. Data for tumor model L1210 Leukemia (intraperitoneal) in B6D2F1 (BDF1) mice
Conditions: endpoint: mean survival time, higher = longer survival
Summary of the method: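 Each compound was tested against a transplantable tumor grown in mice. The endpoint was survival, with treated animals benchmarked against vehicle controls as a simple ratio.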

[1] = dose: 100.0 mg/kg/injection, schedule: Q01DX001 (ip), vehicle: carboxymethylcellulose (CMC)
[2] = dose: 150.0 mg/kg/injection, schedule: Q01DX001 (ip), vehicle: carboxymethylcellulose (CMC)
[3] = dose: 100.0 mg/kg/injection, schedule: Q01DX001 (ip), vehicle: saline
[4] = dose: 100.0 mg/kg/injection, schedule: Q04DX003 (ip), vehicle: saline
[5] = dose: 200.0 mg/kg/injection, schedule: Q04DX003 (ip), vehicle: saline
[6] = dose: 400.0 mg/kg/injection, schedule: Q04DX003 (ip), vehicle: saline
[7] = dose: 100.0 mg/kg/injection, schedule: Q04DX002 (ip), vehicle: saline
[8] = dose: 200.0 mg/kg/injection, schedule: Q04DX002 (ip), vehicle: saline
[9] = dose: 400.0 mg/kg/injection, schedule: Q04DX002 (ip), vehicle: saline
[10] = dose: 100.0 mg/kg/injection, schedule: Q01DX009 (ip), vehicle: Klucel (hydroxypropylcellulose) (HPC)
[11] = dose: 200.0 mg/kg/injection, schedule: Q01DX009 (ip), vehicle: Klucel (hydroxypropylcellulose) (HPC)
[12] = dose: 50.0 mg/kg/injection, schedule: Q01DX009 (ip), vehicle: Klucel (hydroxypropylcellulose) (HPC)
[13] = dose: 100.0 mg/kg/injection, schedule: Q04DX002 (ip), vehicle: Klucel (hydroxypropylcellulose) (HPC)
[14] = dose: 200.0 mg/kg/injection, schedule: Q04DX002 (ip), vehicle: Klucel (hydroxypropylcellulose) (HPC)
[15] = dose: 400.0 mg/kg/injection, schedule: Q04DX002 (ip), vehicle: Klucel (hydroxypropylcellulose) (HPC)
[16] = dose: 100.0 mg/kg/injection, schedule: Q01DX009 (ip), vehicle: saline with Tween-80
[17] = dose: 200.0 mg/kg/injection, schedule: Q01DX009 (ip), vehicle: saline with Tween-80
[18] = dose: 5.0 mg/kg/injection, schedule: Q01DX001 (ip), vehicle: saline
[19] = dose: 10.0 mg/kg/injection, schedule: Q01DX001 (ip), vehicle: saline
[20] = dose: 20.0 mg/kg/injection, schedule: Q01DX001 (ip), vehicle: saline
[21] = dose: 40.0 mg/kg/injection, schedule: Q01DX001 (ip), vehicle: saline

In the case of Cc1ccc(NC(=O)N(CCCl)N=O)cc1Cl, the T/C (dose: 0.5 mg/kg/injection, schedule: Q01DX009 (ip), vehicle: carboxymethylcellulose (CMC)) is reported as 112 % of control, the T/C (dose: 1.0 mg/kg/injection, schedule: Q01DX009 (ip), vehicle: carboxymethylcellulose (CMC)) is reported as 117 % of control and the T/C (dose: 13.0 mg/kg/injection, schedule: Q01DX001 (ip), vehicle: carboxymethylcellulose (CMC)) is reported as 120 % of control. The T/C (dose: 13.0 mg/kg/injection, schedule: Q01DX007 (ip), vehicle: carboxymethylcellulose (CMC)) was 159 % of control, the T/C (dose: 14.0 mg/kg/injection, schedule: Q01DX009 (ip), vehicle: carboxymethylcellulose (CMC)) was 164 % of control and the T/C (dose: 29.0 mg/kg/injection, schedule: Q01DX001 (ip), vehicle: other) was 229 % of control. For the same compound, the T/C (dose: 33.0 mg/kg/injection, schedule: Q01DX009 (ip), vehicle: carboxymethylcellulose (CMC)) was 166 % of control, the T/C (dose: 44.0 mg/kg/injection, schedule: Q01DX001 (ip), vehicle: other) was 159 % of control and the T/C (dose: 44.4 mg/kg/injection, schedule: Q01DX001 (ip), vehicle: carboxymethylcellulose (CMC)) was 159 % of control. For the same compound, the T/C (dose: 66.6 mg/kg/injection, schedule: Q01DX001 (ip), vehicle: carboxymethylcellulose (CMC)) was 244 % of control, the T/C [1] was 193 % of control and the T/C [2] was 100 % of control.

O=C1NCC(Nc2ccc(Br)cc2)C(=O)N1 (configuration not stated) was tested, and the T/C (dose: 100.0 mg/kg/injection, schedule: Q01DX Z (ip), vehicle: methylcellulose (MC)) was 96 % of control and the T/C (dose: 200.0 mg/kg/injection, schedule: Q01DX Z (ip), vehicle: methylcellulose (MC)) was 94 % of control.

In the case of CC1CC[N-]CC1.CC1CC[N-]CC1.CC1CC[N-]CC1.[Cl][Cr]([Cl])[Cl], the T/C (dose: 100.0 mg/kg/injection, schedule: Q04DX003 (ip), vehicle: other) is reported as 98 % of control, the T/C (dose: 200.0 mg/kg/injection, schedule: Q04DX003 (ip), vehicle: other) is reported as 95 % of control and the T/C (dose: 400.0 mg/kg/injection, schedule: Q04DX003 (ip), vehicle: other) is reported as 97 % of control.

For Cc1coc2c1[C@@H](O)[C@]1(C)[C@@H](C)CC[C@H](O)[C@]1(O)C2, the T/C [3] was 97 % of control and the T/C (dose: 200.0 mg/kg/injection, schedule: Q01DX001 (ip), vehicle: saline) was 95 % of control.

With CNCc1nc2ccccc2c(C)[n+]1[O-] the T/C [4] was 97 % of control, the T/C [5] was 97 % of control and the T/C [6] was 95 % of control.

CCCCCC1CCCC1 was tested, and the T/C [7] was 94 % of control, the T/C [8] was 106 % of control and the T/C [9] was 103 % of control.

For CN(CCNC(=O)Nc1ccccc1)c1ccccc1, the T/C [10] was 101 % of control, the T/C [11] was 97 % of control and the T/C (dose: 400.0 mg/kg/injection, schedule: Q01DX009 (ip), vehicle: Klucel (hydroxypropylcellulose) (HPC)) was 105 % of control.

For C=C1C(=O)OC2CCC3OC3CCC12 (configuration not stated) (tested in a mixture with another compound), the T/C [4] was 103 % of control and the T/C [5] was 95 % of control.

With O=C(CCCCCCCCC(=O)OCc1ccccc1)OCc1ccccc1 the T/C [7] was 96 % of control, the T/C [8] was 88 % of control and the T/C [9] was 100 % of control.

In the case of N#C/C(=C\C1C(Cl)CCCC1Cl)C1CCC([N+](=O)[O-])CC1 (configuration not stated), the T/C (dose: 100.0 mg/kg/injection, schedule: Q04DX002 (ip), vehicle: saline with Tween-80) is reported as 101 % of control, the T/C (dose: 200.0 mg/kg/injection, schedule: Q04DX002 (ip), vehicle: saline with Tween-80) is reported as 97 % of control and the T/C (dose: 400.0 mg/kg/injection, schedule: Q04DX002 (ip), vehicle: saline with Tween-80) is reported as 101 % of control.

In the case of OC1=NN(Cc2ccccc2)NO1, the T/C (dose: 25.0 mg/kg/injection, schedule: Q01DX009 (ip), vehicle: Klucel (hydroxypropylcellulose) (HPC)) is reported as 95 % of control, the T/C [12] is reported as 95 % of control and the T/C [10] is reported as 92 % of control. The T/C [13] was 104 % of control, the T/C [14] was 104 % of control and the T/C [15] was 93 % of control.

In the case of CC1C(C)(C)P(=O)(c2ccccc2)C1(C)C (configuration not stated), the T/C (dose: 12.5 mg/kg/injection, schedule: Q04DX003 (ip), vehicle: saline) is reported as 96 % of control, the T/C (dose: 25.0 mg/kg/injection, schedule: Q04DX003 (ip), vehicle: saline) is reported as 96 % of control and the T/C (dose: 50.0 mg/kg/injection, schedule: Q04DX003 (ip), vehicle: saline) is reported as 105 % of control.

In the case of CCCCCCCCC1SC1CCCCCCCC(=O)OCCCOC(=O)CCCCCCCC1SC1CCCCCCCC (configuration not stated), the T/C [16] is reported as 98 % of control, the T/C [17] is reported as 93 % of control and the T/C (dose: 400.0 mg/kg/injection, schedule: Q01DX009 (ip), vehicle: saline with Tween-80) is reported as 96 % of control.

For CCOP(=O)(OCC)O/N=C(/SC)C(C)C, the T/C [18] was 100 % of control, the T/C [19] was 111 % of control and the T/C [20] was 103 % of control. The T/C [21] was 100 % of control and the T/C (dose: 80.0 mg/kg/injection, schedule: Q01DX001 (ip), vehicle: saline) was 116 % of control.

Cn1cnnc1[N+](=O)[O-] was tested, and the T/C (dose: 100.0 mg/kg/injection, schedule: Q04DX003 (ip), vehicle: saline sonified) was 105 % of control.

With CN(C)CCS(=O)(=O)CCc1ccccc1 the T/C (dose: 75.0 mg/kg/injection, schedule: Q01DX001 (ip), vehicle: carboxymethylcellulose (CMC)) was 106 % of control, the T/C [2] was 98 % of control and the T/C (dose: 300.0 mg/kg/injection, schedule: Q01DX001 (ip), vehicle: carboxymethylcellulose (CMC)) was 101 % of control.

O=C(O)CCl was tested, and the T/C (dose: 50.0 mg/kg/injection, schedule: Q01DX001 (ip), vehicle: saline) was 98 % of control and the T/C [3] was 104 % of control.

CC(=O)OC1C=CCc2c(O)c3c(c(O)c21)C(=O)c1ccccc1C3=O (configuration not stated) was tested, and the T/C (dose: 100.0 mg/kg/injection, schedule: Q01DX009 (ip), vehicle: saline) was 91 % of control, the T/C [4] was 90 % of control and the T/C (dose: 200.0 mg/kg/injection, schedule: Q01DX009 (ip), vehicle: saline) was 109 % of control. The T/C [5] was 88 % of control, the T/C (dose: 400.0 mg/kg/injection, schedule: Q01DX009 (ip), vehicle: saline) was 103 % of control and the T/C [6] was 91 % of control.

In the case of O=C1C2=C(NC1(c1ccccc1)c1ccccc1)c1ccccc1C2, the T/C [12] is reported as 101 % of control, the T/C [10] is reported as 105 % of control and the T/C [11] is reported as 97 % of control.

In the case of CCOC(=O)C(O)(CC)CCC(C)C (configuration not stated), the T/C (dose: 50.0 mg/kg/injection, schedule: Q01DX009 (ip), vehicle: saline with Tween-80) is reported as 101 % of control, the T/C [16] is reported as 101 % of control and the T/C [17] is reported as 111 % of control.

For O=C1CC(=O)N(Cc2ccccc2)C(=O)N1, the T/C [1] was 86 % of control and the T/C (dose: 200.0 mg/kg/injection, schedule: Q01DX001 (ip), vehicle: carboxymethylcellulose (CMC)) was 95 % of control.

O=c1sc2c(s1)CCCC2 was tested, and the T/C [13] was 108 % of control, the T/C [14] was 101 % of control and the T/C [15] was 92 % of control.

In the case of CN(C)CCCNc1c2ccccc2nc2ccccc12, the T/C [18] is reported as 109 % of control, the T/C [19] is reported as 104 % of control and the T/C [20] is reported as 98 % of control. For the same compound, the T/C [21] was 91 % of control.

c1ccc([As+](c2ccccc2)(c2ccccc2)c2ccccc2)cc1 was tested, and the T/C (dose: 1.1 mg/kg/injection, schedule: Q01DX Z (ip), vehicle: carboxymethylcellulose (CMC)) was 120 % of control, the T/C (dose: 1.2 mg/kg/injection, schedule: Q04DX003 (ip), vehicle: carboxymethylcellulose (CMC)) was 119 % of control and the T/C (dose: 1.7 mg/kg/injection, schedule: Q01DX Z (ip), vehicle: carboxymethylcellulose (CMC)) was 104 % of control and 119 % of control. For the same compound, the T/C (dose: 2.5 mg/kg/injection, schedule: Q01DX Z (ip), vehicle: carboxymethylcellulose (CMC)) was 101 % of control, the T/C (dose: 2.5 mg/kg/injection, schedule: Q01DX Z (ip), vehicle: methylcellulose (MC)) was 119 % of control and the T/C (dose: 2.5 mg/kg/injection, schedule: Q04DX003 (ip), vehicle: carboxymethylcellulose (CMC)) was 117 % of control. The T/C (dose: 3.76 mg/kg/injection, schedule: Q01DX Z (ip), vehicle: carboxymethylcellulose (CMC)) was 107 % of control, the T/C (dose: 5.0 mg/kg/injection, schedule: Q01DX001 (ip), vehicle: carboxymethylcellulose (CMC)) was 115 % of control and the T/C [18] was 106 % of control. For the same compound, the T/C (dose: 5.0 mg/kg/injection, schedule: Q04DX003 (ip), vehicle: carboxymethylcellulose (CMC)) was 116 % of control, the T/C (dose: 5.56 mg/kg/injection, schedule: Q01DX Z (ip), vehicle: carboxymethylcellulose (CMC)) was 102 % of control and the T/C [19] was 106 % of control.
